Assays:
[1] = system: primary human keratinocytes; experiment: Western blotting of CKI-treated primary human keratinocytes; assay type: cell-based; conditions: 72 hours
Method: FIGS. 4A to 4G show the effect of CKI treatment on human primary keratinocytes and melanocytes. […] In FIG. 4B, the primary human keratinocytes were treated with indicated concentrations of CKI when the cell confluence was 90%. […] Statistical results from a total of 3 independent experiments were determined with unpaired t-test analysis and shown as mean±SD. “NS” indicates no significant difference and asterisks *** indicates a significant difference with P<0.001. In FIGS. 4D and 4E, the primary melanocytes were cultured in conditional medium that have cultured keratinocytes for 3 days and treated with or without CKI.
FIGS. 7A to 7C show the effects of additional casein kinase 1 inhibitors including A51, CKI7, D4476 and IC261 on the Kit pathway and melanogenesis-related protein expression levels of human keratinocytes.
(§1) Western blot For experiments involving tissues, the tissues were homogenized and lysed in 1x tissue protein extraction reagent (Thermo Fisher) containing protease inhibitor (Millipore) and kept on ice; for experiments involving cells, cell pellet was collected and lysed in 1x radioimmunoprecipitation assay (RIPA) lysis buffer containing protease inhibitor (Millipore) and kept on ice. The total protein concentration was determined using Protein Assay Dye Reagent Concentrate (Bio-Rad) following manufacturer's instruction with a microplate reader. Sample was diluted in SDS-PAGE Sample Buffer (Bio-Rad) and heated at 95° C. for 5 minutes. The protein sample was then resolved on SDS-PAGE gels (TGX FastCast acrylamide solutions, Bio-Rad) and transferred onto poly(vinylidene fluoride) (PVDF) membranes (Millipore). 5% BSA was used, and then the membranes were incubated with primary antibodies overnight at 4° C. The membranes were then washed by Tris-buffered saline with Tween 20 (TBST) and incubated with secondary antibodies for 1 hour at room temperature. The signal was detected using iBright FL1000 Imaging System from Thermo Fisher Scientific.
Cell culture Human keratinocyte and melanocyte were cultured from human foreskin. The keratinocyte was cultured with keratinocyte serum-free medium (SFM), or K-SFM, which is a complete serum-free medium and supplemented with human recombinant epidermal growth factor (rEGF) and bovine pituitary extract (BPE) (Gibco, 17005042) at the time of use. Melanocyte was cultured with Medium 254 containing human melanocyte growth supplement (HMGS) (Gibco, M254500). The culture was maintained at 37° C. and in 5% CO2. Keratinocyte Kit ligand secretion was detected by Human SCF ELISA Kit (Abcam, ab176109). All of the procedures followed manufacturer's instruction.
In skin, keratinocyte interacts with melanocyte through a system of paracrine growth factors and cell-cell adhesion junction for a stable skin homeostatic balance. In this embodiment, primary cultures of keratinocyte and melanocyte were prepared from human foreskin. The primary human keratinocytes were treated with indicated concentration of CKI for 3 days, and the conditional medium was collected and used to treat melanocytes for 3 days.
Additional casein kinase 1 inhibitors were used to examine their effects on KitL production with human keratinocyte cultures. […] A51 was a CKI gifted by Dr. Yinon Ben-Neriah, and […] (Sigma-Aldrich D1944) and IC261 (Sigma-Aldrich 400090) were commercially available and were dissolved in DMSO. CKI7 was another CKI commercially available (Sigma-Aldrich C0742) and was dissolved in ddH20. […] Expression of KitL was increased in CKI, CKI7, D4476 and IC261 after treatment for 72 hours, compared to DMSO or mock. Mock was a control in the experiment where the keratinocytes were neither treated with DMSO or any CKI. In FIG. 7B, it was further shown that D4476 treatment at concentrations of from 500 nM to 5,000 nM on human keratinocytes increases the expression of p53 and KitL […] in treated keratinocytes after 72 hours. […]

[2] = system: KitL/c-Kit pathway and melanocyte-related targets; experiment: Western blotting of ear skin, MC1R mutant mice; assay type: in vivo, mouse; conditions: topical, total 0.24 mg over 2 weeks, ear skin at 3rd week
Method: FIGS. 2A to 2L show the effects of CK1α ablation in keratinocytes of MC1R mutant mice and the UV protection effect of topical CKI treatment on MC1R mutant mice. […] The skin samples were treated as illustrated in the scheme and harvested after 24 hours of 750 mJ/cm^2 UVB irradiation on day 21 and stained with anti-CPD antibody for examining the DNA damage.
FIGS. 5A and 5B show the effect of D4476 and IC261 treatments on MC1R mutant mice.
as §1

human foreskin explants = experiment: Human skin explant: colour, Fontana-Masson staining, Melan-A and Trp-1 IHC; assay type: cell-based; conditions: D4476, human skin explant
Method: (§2) The specimen was cultured in the 12-well plate (N=5). After 24 hours of explant culture, the specimen was treated with 0.01 mg CKI, and another treatment of 0.01 mg CKI was given two days thereafter, as shown in the timeline. On the 5th day, the specimens were exposed under 1 J/cm^2 UVB light. Samples were harvested 6 hours later. […] Moreover, frozen embedding in OCT was also made for IHC analysis for Melan-A and Trp-1 labelling.
(§3) FIGS. 6A to 6E show the UV protection effect of topical treatment of another CKI, D4476, on human skin explants. […] FIGS. 6C and 6D show the Western blotting analysis results and the quantitated amount, respectively, of the expression levels of proteins in the c-Kit pathway and melanogenesis-related protein.
For topical use on human skin explant, a CKI solution containing 1 mg in 6 μL DMSO was diluted with 594 μL phosphate buffered saline (PBS) for further use. The final working concentration is 0.01 mg/6 μL.
Human skin explant The human foreskins were used for in vitro explant culture experiments. […]
Primary antibody was applied in 4° C. overnight, and then incubated with secondary antibody at room temperature for 30 minutes. The signal was detected by AEC+Substrate-Chromogen (K346111, Dako) or Dako REAL EnVDetectSys Perox/DAB+, Rb/M (K500711, Dako), counterstained with hematoxylin and mounted with either aqueous- or organic-based medium. […]

[3] = system: p53 and pigmentation-related proteins; experiment: Western blotting of human skin explant epidermis; assay type: cell-based; conditions: 0.1 mg of D4476, human skin explant, vs control
Source text: (§4) The numbers of Melan-A+cells and Trip-1+cells and also the relative melanin intensity in the control or CKI treatment groups are quantified in the histograms. […] The asterisks *** indicated a significant difference with P<0.001.
In addition, the epidermis and dermis were separated by thermolysin. The total proteins of epidermis were extracted by T-PER Tissue Protein Extraction Reagent (78510, Thermo Fisher) for Western blotting analysis.
as §1

CPD = experiment: UVB-induced CPD in human skin explants; assay type: cell-based; conditions: 0.08 mg of D4476; 6 hours after 1,000 mJ/cm^2 UVB
Method: as §2, §4, §3
In the immunohistochemical analysis shown in FIG. 3C, both Melan-A and Trp-1, the markers for melanocyte, were found increased in the staining. […] In addition, human skin explants after topical CKI treatment were exposed to 1 J/cm^2 UVB irradiation, and collected for CPD analysis 6 hours later. […]

[4] = compared to DMSO or mock (FIG. 7A)
[5] = 500 nM to 5,000 nM, dose-independently

| Structure (SMILES) | expression of KitL [1, 4] | expression of Kit-L [2] | expression of c-Kit [2] | expression of tyrosinase [2] | melanin intensity in epidermis (Fontana-Masson staining) (human foreskin explants) | KitL (Western blotting) [3] | c-Kit (Western blotting) [3] | p53 (Western blotting) [3] | tyrosinase (Western blotting) [3] | β-catenin (Western blotting) [3] | CPD staining (CPD) | expression of KitL [1, 5] | expression of p53 [1, 5] |
| --- | --- | --- | --- | --- | --- | --- | --- | --- | --- | --- | --- | --- | --- |
| NCCNS(=O)(=O)c1ccc(Cl)c2ccncc12 [CKI7] | increased |  |  |  |  |  |  |  |  |  |  |  |  |
| NC(=O)c1ccc(-c2nc(-c3ccc4c(c3)OCCO4)c(-c3ccccn3)[nH]2)cc1 [D4476] | increased | increased | increased | increased | increased | increased | increased | stabilization | increased | stabilization | reduced | increases | increases |
| COc1cc(OC)c(C=C2C(O)=Nc3ccccc32)c(OC)c1 [IC261] | increased | increased | increased | increased |  |  |  |  |  |  |  | increases | increases |

Source: US20230053307A1, “METHOD FOR PREVENTING OR TREATING SKIN DISORDERS AND CONDITIONS” (BUDDHIST TZU CHI MEDICAL FOUNDATION, priority 2021, published 2023)
